The record followed here is ChEMBL document CHEMBL1147414, “Synthesis of galactopyranosyl amino alcohols as a new class of antitubercular and antifungal agents” (2004).

Values after ≈ are worked out from the molar mass of the structure shown.

Assay [1] deals with Sporothrix schenckii. The experiment in a line: Minimum inhibitory concentration against Sporothrix schenckii.
Assay [2] deals with Trichophyton benhamiae. The assay can be described thus: Minimum inhibitory concentration against Trichophyton mentagrophytes. The class given is functional, Arthroderma benhamiae.
The subject of assay [3] is Mycobacterium tuberculosis. The assay can be described thus: Minimum inhibitory concentration against Mycobacterium tuberculosis. Type of assay: functional.
The test system of assay [4] is Candida albicans. The experiment in a line: Minimum inhibitory concentration against Candida albicans. Type of assay: functional.
The test system of assay [5] is Cryptococcus neoformans. The assay can be described thus: Minimum inhibitory concentration against Cryptococcus neoformans. Type of assay: functional.
Assay [6] has as its system Candida parapsilosis. The experiment in a line: Minimum inhibitory concentration against Candida parapsilosis. The class given is functional. Conditions: Lodderomyces parapsilosis.
Assay [7] relates to Aspergillus fumigatus. The experiment in a line: Minimum inhibitory concentration against Aspergillus fumigatus. The class given is functional.
For assay [8], the system named is Mycobacterium tuberculosis. The experiment in a line: In vito growth of Mycobacterium tuberculosis BC-248 strain after 6 weeks; + indicates 1-20 colonies. Type of assay: functional, organism-based.
The test system of assay [9] is Mycobacterium tuberculosis. The experiment in a line: In vito growth of Mycobacterium tuberculosis BC-437 strain after 6 weeks; - indicates no growth. The class given is functional, organism-based.
The test system of assay [10] is Mycobacterium tuberculosis. The assay can be described thus: In vito growth of Mycobacterium tuberculosis VA-101 strain after 6 weeks; […] colonies. Type of assay: functional, organism-based.
Assay [11] deals with Mycobacterium tuberculosis. The assay can be described thus: In vito growth of Mycobacterium tuberculosis BC-426 strain after 6 weeks; - indicates no growth. The class given is functional, organism-based.
Assay [12] deals with Mycobacterium tuberculosis. The assay can be described thus: In vito growth of Mycobacterium tuberculosis BC-248 strain after 6 weeks; - indicates no growth. Type of assay: functional, organism-based.
Assay [13] concerns Mycobacterium tuberculosis. The experiment in a line: In vito growth of Mycobacterium tuberculosis BC-243 strain after 6 weeks; - indicates no growth. Type of assay: functional, organism-based.

A word on the MIC: it is the lowest concentration found to suppress growth. A higher MIC goes with weaker potency. `CC1(C)O[C@H]2OC(COCC(O)CN3CCCC3)[C@@H]3OC(C)(C)O[C@@H]3[C@H]2O1` (stereo partly specified): the MIC in assay [1] is over 50 µg/mL; in assay [2], 50 µg/mL (≈ 129 µM); in [3] it was over 50 µg/mL; in assay [4], over 50 µg/mL; in assay [5], 25 µg/mL (≈ 64.5 µM); in assay [6], over 50 µg/mL. This compound also yielded an MIC in assay [7] of over 50 µg/mL.
Consider `CC1(C)O[C@H]2OC(COCC(O)CN3CCN(c4cccc(Cl)n4)CC3)[C@@H]3OC(C)(C)O[C@@H]3[C@H]2O1` (stereo partly specified), for which the MIC was over 50 µg/mL in [1]; 25 µg/mL (≈ 48.6 µM) in [2]; over 50 µg/mL in [3]; over 50 µg/mL in assay [4]; 12.5 µg/mL (≈ 24.3 µM) in assay [5]; over 50 µg/mL in assay [6]. The MIC in assay [7] was over 50 µg/mL.
In the case of `CC1(C)O[C@H]2OC(COCC(O)CN3CCCCC3)[C@@H]3OC(C)(C)O[C@@H]3[C@H]2O1` (stereo partly specified), the MIC in assay [1] was over 50 µg/mL; in assay [2], 50 µg/mL (≈ 125 µM); in assay [3], over 50 µg/mL; in assay [4], over 50 µg/mL; in assay [5] it was 25 µg/mL (≈ 62.3 µM); in assay [6], over 50 µg/mL. In [7], this compound displayed an MIC of over 50 µg/mL.
As to `CC1(C)O[C@H]2OC(COCC(O)CNCc3ccco3)[C@@H]3OC(C)(C)O[C@@H]3[C@H]2O1` (stereo partly specified), the MIC in assay [1] is over 50 µg/mL; in assay [2], 50 µg/mL (≈ 121 µM); in assay [3], over 50 µg/mL; in [4] it was over 50 µg/mL; in assay [5], 25 µg/mL (≈ 60.5 µM); in [6], over 50 µg/mL. The compound also came in with an MIC in assay [7] of over 50 µg/mL.
Turning to `CC[C@@H](CO)NCCN[C@@H](CC)CO` [ETHAMBUTOL], inhibition of growth in assay [3] (MIC) required 3.25 µg/mL (≈ 15.9 µM).
Regarding `CC1(C)O[C@@H]2OC(COCC(O)CNCCCCCCCNCC(O)COCC3O[C@@H]4OC(C)(C)O[C@@H]4[C@H]4OC(C)(C)O[C@@H]34)[C@H]3OC(C)(C)O[C@H]3[C@@H]2O1` (stereo partly specified), the MIC was over 50 µg/mL in assay [1]; 50 µg/mL (≈ 65.5 µM) in assay [2]; over 50 µg/mL in assay [3]; over 50 µg/mL in [4]; 50 µg/mL (≈ 65.5 µM) in [5]; over 50 µg/mL in assay [6]. The compound further came in with an MIC in assay [7] of over 50 µg/mL.
In the case of `CC1(C)O[C@H]2OC(COCC(O)CNCc3ccccc3)[C@@H]3OC(C)(C)O[C@@H]3[C@H]2O1` (stereo partly specified), the MIC was over 50 µg/mL in assay [1]; 50 µg/mL (≈ 118 µM) in assay [2]; over 50 µg/mL in [3]; over 50 µg/mL in assay [4]; 25 µg/mL (≈ 59 µM) in assay [5]; over 50 µg/mL in assay [6]. In assay [7], this compound had an MIC of over 50 µg/mL.
For `CCCCCCCC/C=C/CCCCCCCCNCC(O)COCC1O[C@@H]2OC(C)(C)O[C@@H]2[C@H]2OC(C)(C)O[C@@H]12` (stereo partly specified), the MIC in assay [1] is 50 µg/mL (≈ 85.6 µM); in assay [2], 25 µg/mL (≈ 42.8 µM); in [3] it was 12.5 µg/mL (≈ 21.4 µM); in assay [4] it was 50 µg/mL (≈ 85.6 µM); in [5] it was 6.25 µg/mL (≈ 10.7 µM); in assay [6] it was over 50 µg/mL. The same compound came in with an MIC in assay [7] of 50 µg/mL (≈ 85.6 µM).
As for `CC1(C)O[C@@H]2OC(COCC(O)CNCCCCCCCCCCNCC(O)COCC3O[C@@H]4OC(C)(C)O[C@@H]4[C@H]4OC(C)(C)O[C@@H]34)[C@H]3OC(C)(C)O[C@H]3[C@@H]2O1` (stereo partly specified), the MIC in assay [1] is over 50 µg/mL; in assay [2], 50 µg/mL (≈ 62.1 µM); in assay [3], over 50 µg/mL; in assay [4], over 50 µg/mL; in assay [5], 12.5 µg/mL (≈ 15.5 µM); in assay [6] it was over 50 µg/mL. In [7], this compound showed an MIC of over 50 µg/mL.
Take `CC1(C)O[C@H]2OC(COCC(O)CN3CCOCC3)[C@@H]3OC(C)(C)O[C@@H]3[C@H]2O1` (stereo partly specified): the MIC in [1] is over 50 µg/mL; in assay [2], 50 µg/mL (≈ 124 µM); in assay [3], over 50 µg/mL; in assay [4], over 50 µg/mL; in assay [5], 25 µg/mL (≈ 62 µM); in [6], over 50 µg/mL. Also, the MIC in [7] is over 50 µg/mL.
For the compound `CC1(C)O[C@@H]2OC(COCC(O)CNCCCCCCCCCNCC(O)COCC3O[C@@H]4OC(C)(C)O[C@@H]4[C@H]4OC(C)(C)O[C@@H]34)[C@H]3OC(C)(C)O[C@H]3[C@@H]2O1` (stereo partly specified), the MIC in assay [1] was over 50 µg/mL; in assay [2], 50 µg/mL (≈ 63.2 µM); in assay [3], over 50 µg/mL; in [4] it was over 50 µg/mL; in assay [5], 25 µg/mL (≈ 31.6 µM); in assay [6], over 50 µg/mL. In [7], the MIC was over 50 µg/mL.
On to `CCCCCCCCCCCCNCC(O)COCC1O[C@@H]2OC(C)(C)O[C@@H]2[C@H]2OC(C)(C)O[C@@H]12` (stereo partly specified), for which the MIC in assay [1] turned out to be 6.25 µg/mL (≈ 12.5 µM); in [2], 6.25 µg/mL (≈ 12.5 µM); in assay [3], 12.5 µg/mL (≈ 24.9 µM); in assay [4], 12.5 µg/mL (≈ 24.9 µM); in assay [5] it was 1.56 µg/mL (≈ 3.11 µM); in assay [6], 25 µg/mL (≈ 49.8 µM). Also, the MIC in assay [7] was 6.25 µg/mL (≈ 12.5 µM).
`CC1(C)O[C@@H]2OC(COCC(O)CNCCCCCCCCCCCCNCC(O)COCC3O[C@@H]4OC(C)(C)O[C@@H]4[C@H]4OC(C)(C)O[C@@H]34)[C@H]3OC(C)(C)O[C@H]3[C@@H]2O1` (stereo partly specified): the Growth in assay [8] is recorded as 1-20 colonies. The MIC in assay [1] is over 50 µg/mL; in assay [2] it was 50 µg/mL (≈ 60 µM); in assay [3], 1.56 µg/mL (≈ 1.87 µM); in [4] it was over 50 µg/mL; in assay [5], 12.5 µg/mL (≈ 15 µM); in assay [6], over 50 µg/mL. In assay [7], the MIC was over 50 µg/mL.
For the compound `CCCCCCCCCCCCCCCCNCC(O)COCC1O[C@@H]2OC(C)(C)O[C@@H]2[C@H]2OC(C)(C)O[C@@H]12` (stereo partly specified), the MIC was determined as 25 µg/mL (≈ 44.8 µM) in assay [1]; 12.5 µg/mL (≈ 22.4 µM) in assay [2]; 12.5 µg/mL (≈ 22.4 µM) in assay [3]; 25 µg/mL (≈ 44.8 µM) in assay [4]; 6.25 µg/mL (≈ 11.2 µM) in assay [5]; 25 µg/mL (≈ 44.8 µM) in [6]. In assay [7], this compound yielded an MIC of 25 µg/mL (≈ 44.8 µM).
On to `CC(=O)N1CCN(c2ccc(OC[C@H]3CO[C@](Cn4ccnc4)(c4ccc(Cl)cc4Cl)O3)cc2)CC1` [KETOCONAZOLE], for which the MIC in [1] stood at 0.5 µg/mL (≈ 0.941 µM); in [2], 0.25 µg/mL (≈ 0.47 µM); in [4], 0.001 µg/mL (≈ 0.00188 µM); in assay [5] it was 0.12 µg/mL (≈ 0.226 µM); in assay [6], 0.12 µg/mL (≈ 0.226 µM); in assay [7], 0.25 µg/mL (≈ 0.47 µM).
`C[C@@H]1CN(c2c(F)c(N)c3c(=O)c(C(=O)O)cn(C4CC4)c3c2F)C[C@H](C)N1`: the Growth result in assay [9] was “No growth”; in assay [10], 1-20 colonies; in [11], “No growth”; in assay [12], “No growth”; in assay [13], “No growth”.
Consider `CC1(C)O[C@@H]2OC(COCC(O)CNCCCNCC(O)COCC3O[C@@H]4OC(C)(C)O[C@@H]4[C@H]4OC(C)(C)O[C@@H]34)[C@H]3OC(C)(C)O[C@H]3[C@@H]2O1` (stereo partly specified), for which the MIC in assay [1] was over 50 µg/mL; in [2], 50 µg/mL (≈ 70.7 µM); in [3] it was over 50 µg/mL; in assay [4], over 50 µg/mL; in assay [5], 25 µg/mL (≈ 35.4 µM); in [6], over 50 µg/mL. In [7], this compound had an MIC of over 50 µg/mL.
